In paper PMC10250618, “Synthesis, structure-activity relationships and biological evaluation of benzimidazole derived sulfonylurea analogues as a new class of antagonists of P2Y1 receptor” (Frontiers in Pharmacology, 2023):
Read-outs that look alike come from different tables or passages of the source.

Legend:
[1] = MTT assay, HEK-293; assay type: cell-based; conditions: human, HEK-293 cells; at 50 µM; triplicate; read-out: HEK-293 Cell Line (%cytotoxicity ±SEM)
[2] = biological target: T1, h-P2Y4 (Homo sapiens, UniProt P51582); experiment: Calcium mobilization assay, h-P2Y4 transfected 1321N1 astrocytoma cells; assay type: cell-based; conditions: for inhibition at 100 µM: 1321-N1, final conc of 100 μM, read-out: % Inhibition h-P2Y4
T1 construct: host or cells: human 1321N1 astrocytoma cells, stably transfected
Protocol: (§1) Dr. Gary A. Weisman provided human-1321N1 astrocytoma cells that had been transfected by the tP2Y1R, hP2Y2R, hP2Y4R, and rP2Y6R and untransfected 1321N1 astrocytoma cells (University of Missouri Mo., Bond Life Science Center). The DMEM Dulbecco’s Modified Eagle -Medium (Gibco) was added in flasks to cultivate the cell line. 10% of the Fetal bovine serum was also added to the media together with 500 μg/mL of Geneticin (G418) and 1% of the Pen/Strep. The cells in T-75 flask were then cultured and incubated in a CO2 incubator which was maintained at (5%) and 37°C temperature until 90% of the cells were confluent. Throughout the experiment, cells were periodically checked for the confluency and strictly watched for the microbial contamination.
(§2) The FLUOstar Galaxy (BMG LABTECH GmbH, Ortenberg, Germany) microplate reader with two injectors was used to measure the Ca^2+ fluorescence of synthetic compounds. For this assay, 1321N1 transfected cells (t-P2Y1, h-P2Y2, h-P2Y4, and r-P2Y6) were cultured in T-75 flask. When cells reached the confluency of 80%–90%, they were washed with PBS and then Trypsin was added. After trypsinization for 3 min, 20,000 cells/well were allowed to seed in a black wall and 96 well clear bottom plate which was coated with Poly-D-Lysine and allowed to incubate for 24 h in 37°C, 5% CO2 incubator. After incubation, 200 μL culture media was changed with 100 μL HBSS containing Fura-2 AM which is calcium chelating dye and allowed the plate to incubate for 45 min in dark at temp of 37°C in incubator which is maintained with carbon dioxide (5% CO2). After incubation for 45 min, synthesized molecules were added to HBSS washed cells in each well of 96 well plate and re-incubated for 30 min at 37°C. In next step, injection of the endogenous ligand such as ADP through the injector was followed by excitation and emission measurements of Fura-2 AM at 380/520 nm and 340/520. Final volume of the assay per well 200 μL. IC50 values were computed for the compounds displaying more than 50% of activity using Prism 5.0 software (Graph Pad., Inc., San Diego. California, United States) by using analysis i.e., nonlinear regression ([Kassack et al., 2002]; [Ullmann et al., 2005]).

[3] = biological target: T2, t-P2Y1 (Meleagris gallopavo, UniProt P49652); experiment: Calcium mobilization assay, t-P2Y1 transfected 1321N1 astrocytoma cells; assay type: cell-based; conditions: for IC50: Ca2+ mobilization inhibition, transfected 1321N1 cells, read-out: IC50 ± SEM t-P2Y1; for IC50 / inhibition at 100 µM: 100 μM ADP; for inhibition at 100 µM: 1321-N1, final conc of 100 μM
T2 construct: host or cells: human 1321N1 astrocytoma cells, stably transfected
Protocol: as §1, §2

[4] = MTT assay, non-transfected 1321N1 astrocytoma cells; assay type: cell-based, human; conditions: human, non-transfected 1321N1 astrocytoma cells; at 50 µM; non-transfected astrocytoma 1321N1 cells; triplicate; read-out: H-1321N1 Cell Line (%cytotoxicity ±SEM)
Protocol: A 96-well plate was used to plate 20,000 human 1321N1 astrocytoma cells and allowed for incubation for 24 h at temp of 37°C in CO2 (5%) incubator. Next to this, the prepared culture media was changed to media which was free from FBS, the test compounds were added and the incubation process was repeated. After incubation of 24 h, the serum free media from the wells was discarded, and 100 μL of the reagent i.e., MTT reagent was pipetted. Plate was then additionally incubated at 37°C for 4 h. Utilizing a microplate reader, absorbance was determined at 570 nm and 630 nm for calculation of cell viability (FLUOstarOmega Microplate Reader-BMG LABTECH GmbH, Ortenberg, Germany) ([Sauer et al., 2009]).

[5] = biological target: T3, r-P2Y6 (Rattus norvegicus, UniProt Q63371); experiment: Calcium mobilization assay, r-P2Y6 transfected 1321N1 astrocytoma cells; assay type: cell-based; conditions: 100 μM of UDP; for inhibition at 100 µM: 1321-N1, final conc of 100 μM; for IC50: Ca2+ mobilization inhibition, transfected 1321N1 cells, read-out: IC50 ± SEM r-P2Y6
T3 construct: host or cells: human 1321N1 astrocytoma cells, stably transfected
Protocol: as §1, §2

[6] = biological target: T4, h-P2Y2 (Homo sapiens, UniProt P41231); experiment: Calcium mobilization assay, h-P2Y2 transfected 1321N1 astrocytoma cells; assay type: cell-based; conditions: for inhibition at 100 µM: 1321-N1, final conc of 100 μM
T4 construct: host or cells: human 1321N1 astrocytoma cells, stably transfected
Protocol: as §1, §2

[7] = MTT assay, HeLa; assay type: cell-based; conditions: human, HeLa cells; at 50 µM; triplicate; read-out: HeLa Cell Line (%cytotoxicity ±SEM)
[8] = Ca2+ mobilization inhibition, transfected 1321N1 cells, 500 μM ATP, read-out: IC50 ± SEM h-P2Y2

T2 sequence (P49652 whole entry): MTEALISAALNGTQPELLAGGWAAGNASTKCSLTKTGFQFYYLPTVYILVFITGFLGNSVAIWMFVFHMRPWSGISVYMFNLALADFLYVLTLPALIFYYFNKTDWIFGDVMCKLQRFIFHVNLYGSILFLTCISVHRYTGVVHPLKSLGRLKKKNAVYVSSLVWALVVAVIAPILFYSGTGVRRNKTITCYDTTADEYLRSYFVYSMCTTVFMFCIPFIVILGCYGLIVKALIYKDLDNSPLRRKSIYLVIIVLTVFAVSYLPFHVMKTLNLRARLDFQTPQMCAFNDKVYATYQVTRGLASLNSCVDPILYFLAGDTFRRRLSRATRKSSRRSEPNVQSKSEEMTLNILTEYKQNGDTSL
T3 sequence (Q63371 whole entry): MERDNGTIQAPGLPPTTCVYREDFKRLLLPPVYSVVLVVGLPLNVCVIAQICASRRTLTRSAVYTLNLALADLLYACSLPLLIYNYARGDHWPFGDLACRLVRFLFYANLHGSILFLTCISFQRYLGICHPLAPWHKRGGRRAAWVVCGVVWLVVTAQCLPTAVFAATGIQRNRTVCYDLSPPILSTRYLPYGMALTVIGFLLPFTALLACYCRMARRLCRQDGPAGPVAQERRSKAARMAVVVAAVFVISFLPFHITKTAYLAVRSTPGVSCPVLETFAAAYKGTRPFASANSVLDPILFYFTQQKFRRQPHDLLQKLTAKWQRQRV
T1 sequence (P51582 whole entry): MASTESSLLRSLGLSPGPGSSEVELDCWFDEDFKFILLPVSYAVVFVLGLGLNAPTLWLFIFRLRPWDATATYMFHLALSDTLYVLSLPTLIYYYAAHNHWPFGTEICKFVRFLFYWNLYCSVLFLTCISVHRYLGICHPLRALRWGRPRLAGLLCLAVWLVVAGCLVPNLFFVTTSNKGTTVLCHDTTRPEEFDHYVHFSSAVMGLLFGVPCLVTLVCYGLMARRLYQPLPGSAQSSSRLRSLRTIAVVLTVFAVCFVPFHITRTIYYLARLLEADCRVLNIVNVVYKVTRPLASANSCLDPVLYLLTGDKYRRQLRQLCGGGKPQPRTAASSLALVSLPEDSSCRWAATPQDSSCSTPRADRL
T4 sequence (P41231 whole entry): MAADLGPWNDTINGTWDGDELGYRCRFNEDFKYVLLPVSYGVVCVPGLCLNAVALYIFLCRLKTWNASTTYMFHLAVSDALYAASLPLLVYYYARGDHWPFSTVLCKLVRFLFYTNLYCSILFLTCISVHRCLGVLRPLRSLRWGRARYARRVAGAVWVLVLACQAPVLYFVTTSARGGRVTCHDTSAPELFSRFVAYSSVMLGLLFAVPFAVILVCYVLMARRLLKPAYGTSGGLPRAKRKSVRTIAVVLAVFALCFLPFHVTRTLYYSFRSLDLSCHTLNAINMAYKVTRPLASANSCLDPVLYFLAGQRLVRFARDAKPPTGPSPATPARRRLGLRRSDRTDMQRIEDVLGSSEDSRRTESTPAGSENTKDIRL

Compound	inhibition at 100 µM ([2]; 500 μM UTP)	IC50 [3]	inhibition at 100 µM [5]	inhibition at 100 µM ([6]; 500 μM ATP)	melting point	IC50 [5]	IC50 [6, 8]	IC50 ([2]; Ca2+ mobilization inhibition, transfected 1321N1 cells, 500 μM UTP, read-out: IC50 ± SEM h-P2Y4)	cytotoxicity at 24 h, 50 µM [1]	cytotoxicity at 24 h, 50 µM [4]	cytotoxicity at 24 h, 50 µM [7]	inhibition at 100 µM [3]	IC50 [2]	IC50 [6]	decreased potency relatively to the derivative 1h ([3]; P2Y1)
Cc1ccc(S(=O)(=O)NC(=O)n2c(N)nc3ccccc32)cc1 [1w, 2-Amino-N-tosyl-1H-benzo [d]imidazole-1-carboxamide]	41%	–	39%	23%	165 to 167 °C	–	–	–	27.4 ± 0.3%	23.2 ± 0.3%	21.3 ± 0.5%	49%	–	–	–
O=C(NS(=O)(=O)c1ccccc1)n1c(-c2ccccc2)nc2ccccc21 [1m, 2-Phenyl-N-(phenylsulfonyl)-1H-benzo [d]imidazole-1-carboxamide]	16%	–	21%	37%	154 to 156 °C	–	–	–	33.3 ± 0.3%	37.9 ± 0.7%	39.4 ± 1.3%	29%	–	–	–
Nc1nc2ccccc2n1C(=O)NS(=O)(=O)c1ccc(-c2ccccc2)cc1 [1y, N-([1.1′-biphenyl]-4-ylsulfonyl)-2-amino-1H-benzo [d]imidazole-1-carboxamide]	18%	–	23%	20%	176 to 178 °C	–	–	–	39.7 ± 0.2%	43.1 ± 0.8%	32.6 ± 0.3%	12%	–	–	–
Nc1c(S(=O)(=O)O)cc(Nc2ccc(Nc3nc(Cl)nc(Nc4cccc(S(=O)(=O)O)c4)n3)c(S(=O)(=O)O)c2)c2c1C(=O)c1ccccc1C2=O [Reactive Blue 2, reference compound]	–	–	–	–	–	2.8 ± 0.11 µM	–	–	–	–	–	–	8.4 ± 1.2 µM	0.57 ± 0.02 µM	–
Nc1nc2ccccc2n1C(=O)NS(=O)(=O)c1ccc(Cl)cc1 [1f, 2-Amino-N-((4-chlorophenyl)sulfonyl)-1H-benzo [d]imidazole-1-carboxamide]	47%	0.94 ± 0.01 µM	–	–	110 to 112 °C	9.3 ± 1.12 µM	8.41 ± 0.07 µM	–	21.2 ± 0.7%	23.6 ± 0.8%	16.4 ± 0.2%	–	–	–	about five
Cc1ccc([N+](=O)[O-])cc1S(=O)(=O)NC(=O)n1c(N)nc2ccccc21 [1g, 2-Amino-N-((2-methyl-5-nitrophenyl)sulfonyl)-1H-benzo [d]imidazole-1-carboxamide]	13%	11.2 ± 0.71 µM	40%	33%	183 to 184 °C	–	–	–	14.3 ± 0.3%	46.2 ± 0.2%	11.6 ± 1.1%	–	–	–	–
Nc1nc2cc([N+](=O)[O-])ccc2n1C(=O)NS(=O)(=O)c1cc(Cl)cc(Cl)c1O [1a, 2-Amino-N-((3,5-dichloro-2-hydroxyphenyl)sulfonyl)-5-nitro-1H-benzo [d]imidazole-1-carboxamide]	41%	0.37 ± 0.02 µM	–	44%	107 to 110 °C	0.66 ± 0.04 µM	–	–	13.3 ± 0.1%	27.4 ± 0.5%	22.2 ± 1.1%	–	–	–	–

Further lines, with some results ahead:

inhibition at 100 µM ([2]; 500 μM UTP)	IC50 [3]	inhibition at 100 µM [5]	inhibition at 100 µM ([6]; 500 μM ATP)	melting point	IC50 [5]	IC50 [6, 8]	IC50 ([2]; Ca2+ mobilization inhibition, transfected 1321N1 cells, 500 μM UTP, read-out: IC50 ± SEM h-P2Y4)	Compound	cytotoxicity at 24 h, 50 µM [1]	cytotoxicity at 24 h, 50 µM [4]	cytotoxicity at 24 h, 50 µM [7]	inhibition at 100 µM [3]	IC50 [2]	IC50 [6]	decreased potency relatively to the derivative 1h ([3]; P2Y1)
29%	10 ± 0.12 µM	41%	38%	188 to 190 °C	–	–	–	Cc1ccc(S(=O)(=O)NC(=O)n2c(N)nc3cc(Cl)ccc32)cc1 [1x, 2-Amino-5-chloro-N-tosyl-1H-benzo [d]imidazole-1-carboxamide]	32.1 ± 0.7%	12.6 ± 0.5%	29.8 ± 1.5%	–	–	–	–
20%	5.59 ± 0.91 µM	–	12%	160 to 162 °C	16.3 ± 0.83 µM	–	–	COc1ccc(S(=O)(=O)NC(=O)n2c(Cl)nc3ccccc32)cc1 [1p, 2-Chloro-N-((4-methoxyphenyl)sulfonyl)-1H-benzo [d]imidazole-1-carboxamide]	24.2 ± 0.7%	21.2 ± 0.3%	20.5 ± 0.2%	–	–	–	–
34%	1.21 ± 0.07 µM	41%	–	129 to 131 °C	–	15.7 ± 1.48 µM	–	Nc1nc2cc(Cl)ccc2n1C(=O)NS(=O)(=O)c1ccc(Cl)cc1 [1i, 2-Amino-5-chloro-N-((4-chlorophenyl)sulfonyl)-1H-benzo [d]midazole-1-carboxamide]	36.2 ± 0.1%	38.7 ± 0.8%	39.3 ± 0.4%	–	–	–	–
–	12.4 ± 1.03 µM	–	–	183 to 184 °C	8.49 ± 1.23 µM	11.1 ± 0.94 µM	16.6 ± 1.12 µM	Nc1nc2cc(Cl)ccc2n1C(=O)NS(=O)(=O)c1ccc([N+](=O)[O-])cc1 [1k, 2-Amino-5-chloro-N-((4-nitrophenyl)sulfonyl)-1H-benzo [d]imidazole-1-carboxamide]	27.2 ± 0.2%	41.7 ± 0.2%	21.7 ± 0.9%	–	–	–	–
22%	23.44 ± 0.22 µM	34%	47%	172 to 174 °C	–	–	–	O=C(NS(=O)(=O)c1ccc(-c2ccccc2)cc1)n1c(Cl)nc2ccccc21 [1r, N-([1.1′-biphenyl]-4-ylsulfonyl)-2-chloro-1H-benzo [d]imidazole-1-carboxamide]	33.2 ± 0.1%	31.5 ± 0.4%	26.5 ± 0.5%	–	–	–	–
26%	6.04 ± 1.03 µM	–	42%	166 to 168 °C	12.4 ± 1.1 µM	–	–	O=C(NS(=O)(=O)c1ccc([N+](=O)[O-])cc1)n1c(Cl)nc2ccccc21 [1t, 2-Chloro-N-((4-nitrophenyl)sulfonyl)-1H-benzo [d]imidazole-1-carboxamide]	21.4 ± 1.1%	27.6 ± 0.4%	20.3 ± 0.4%	–	–	–	–
13%	14.6 ± 1.01 µM	48%	–	179 to 181 °C	–	13.6 ± 1.97 µM	–	O=C(NS(=O)(=O)c1ccccc1)n1c(Cl)nc2ccccc21 [1q, 2-Chloro-N-(phenylsulfonyl)-1H-benzo [d]imidazole-1-carboxamide]	30.1 ± 0.2%	33.6 ± 0.7%	29.7 ± 1.1%	–	–	–	–
19%	5.69 ± 0.23 µM	–	21%	158 to 160 °C	7.06 ± 1.47 µM	–	–	O=C(NS(=O)(=O)c1ccc(Cl)cc1)n1c(-c2ccccc2)nc2ccccc21 [1n, N-((4-chlorophenyl)sulfonyl)-2-phenyl-1H-benzo [d]imidazole-1-carboxamide]	38.7 ± 0.3%	26.5 ± 0.4%	22.4 ± 0.8%	–	–	–	–
